Our source for the GI50 and TGI values is PubChem BioAssay (NCI).

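Each compound was tested at five concentrations against cells in 96-well plates for 48 hours. GI50 is the concentration that inhibits growth by half. TGI: total growth inhibition.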

Some test systems named below: COLO 205 colon; HL-60(TB) leukemia; RXF 393 renal; HOP-92 NSCLC; M14 melanoma; TK-10 renal; NCI-H460 lung; ACHN renal; KM12 colon; MCF7 breast.
What all share (assay): NCI tumour cell line growth inhibition, 48 h

As to `CC1(C)OC2[C@@H](CNC(=O)NC(=O)NC(=O)CI)O[C@@H](n3cnc4c(NC(=O)Nc5ccccc5)ncnc43)[C@H]2O1` (some centres undefined), the GI50 was 6.44 µM with COLO 205 colon; 1.61 µM in the assay on HL-60(TB) leukemia; 6.96 µM with RXF 393 renal; 1.4 µM with HOP-92 NSCLC; 6.95 µM in the assay with M14 melanoma; 8.59 µM with TK-10 renal. Besides, the GI50 with NCI-H460 lung was 27 µM; in the assay with ACHN renal, 6.94 µM; in the assay with KM12 colon, 15.8 µM; in the assay on MCF7 breast, 6.17 µM. Besides, the TGI in the assay with COLO 205 colon is 14.5 µM; in the assay with HL-60(TB) leukemia, 4.13 µM; in the assay with RXF 393 renal, 13.6 µM; in the assay on HOP-92 NSCLC, 4.23 µM; in the assay on M14 melanoma, 14.3 µM; with TK-10 renal, 15.5 µM. Moreover, the TGI was more than 50 µM in the assay with NCI-H460 lung, 14.7 µM in the assay on ACHN renal, more than 50 µM in the assay with KM12 colon and 14.2 µM in the assay with MCF7 breast.

Consider `CC[C@]1(O)C[C@@H]2CN(CCc3c([nH]c4ccccc34)[C@@](C(=O)OC)(c3cc4c(cc3OC)N(C)[C@H]3[C@@](O)(C(=O)OC)[C@H](OC(C)=O)[C@]5(CC)C=CCN6CC[C@]43[C@@H]65)C2)C1`, for which the GI50 in the assay with COLO 205 colon is less than 0.01 µM; in the assay with HL-60(TB) leukemia it was less than 0.01 µM; in the assay with RXF 393 renal it was less than 0.01 µM; with HOP-92 NSCLC, less than 0.01 µM; with M14 melanoma, less than 0.01 µM; in the assay on TK-10 renal, 6.02 µM. Further, the GI50 is less than 0.01 µM in the assay with NCI-H460 lung, less than 0.0324 µM in the assay on ACHN renal, less than 0.01 µM in the assay with KM12 colon and less than 0.01 µM in the assay with MCF7 breast. For the same molecule, the TGI in the assay with COLO 205 colon was less than 0.0194 µM; with HL-60(TB) leukemia it was less than 0.01 µM; in the assay with RXF 393 renal, 3.77 µM; with M14 melanoma, 4.31 µM; in the assay on TK-10 renal, 26.9 µM; in the assay with NCI-H460 lung, 15.1 µM. Moreover, the TGI with ACHN renal amounted to 73.9 µM; in the assay with KM12 colon, 14.4 µM; with MCF7 breast it was 32.3 µM.

Take `COc1cc(C2=C(c3ccccc3)COC2=O)cc(OC)c1OC`: the GI50 is 0.834 µM in the assay on COLO 205 colon; 0.409 µM in the assay on HL-60(TB) leukemia; 1.56 µM in the assay with RXF 393 renal; 13.6 µM in the assay with HOP-92 NSCLC; 1.79 µM with M14 melanoma; 1.37 µM in the assay on TK-10 renal. Also, the GI50 in the assay on NCI-H460 lung is 0.966 µM; in the assay on ACHN renal, more than 43.5 µM; with KM12 colon, 0.593 µM; in the assay with MCF7 breast it was 0.537 µM. Also, the TGI was 6.69 µM in the assay with COLO 205 colon; 2.14 µM in the assay with HL-60(TB) leukemia; more than 100 µM in the assay on RXF 393 renal; more than 100 µM in the assay with HOP-92 NSCLC; more than 27.7 µM in the assay on M14 melanoma; more than 30.6 µM in the assay with TK-10 renal. Besides, the TGI in the assay on NCI-H460 lung is 56.4 µM; with ACHN renal it was more than 100 µM; with KM12 colon, more than 31.7 µM; in the assay on MCF7 breast, more than 100 µM.

For `CC/C(=C(/c1ccc(O)cc1)c1ccc(OCCNC)cc1)c1ccccc1`, the GI50 in the assay on COLO 205 colon is 1.97 µM; in the assay with HL-60(TB) leukemia, 2.03 µM; in the assay on RXF 393 renal, 1.68 µM; with HOP-92 NSCLC, 1.18 µM; with M14 melanoma, 1.69 µM; in the assay with TK-10 renal, 2.76 µM. In addition, the GI50 with NCI-H460 lung was 1.84 µM; in the assay on ACHN renal, 2.64 µM; with KM12 colon it was 1.87 µM; in the assay with MCF7 breast it was 0.0324 µM. The TGI with COLO 205 colon came to 3.59 µM; in the assay on HL-60(TB) leukemia it was 4.55 µM; with RXF 393 renal it was 3.69 µM; in the assay with HOP-92 NSCLC, 3.72 µM; with M14 melanoma it was 3.31 µM; in the assay with TK-10 renal, 7.76 µM. Besides, the TGI amounted to 3.37 µM with NCI-H460 lung, 7.52 µM in the assay on ACHN renal, 3.83 µM with KM12 colon and 2.95 µM with MCF7 breast.

As for `C=CC(=O)N1CC2(CCN(c3nc(OC4CCN(CCCOC)CC4)nc4c(OCC(F)(F)F)c(-c5c(C)ccc6[nH]ncc56)c(C5CC5)cc34)CC2)C1`, the GI50 with COLO 205 colon was 1.97 µM; in the assay with HL-60(TB) leukemia, 1.76 µM; in the assay with RXF 393 renal, 1.8 µM; with HOP-92 NSCLC, 3.53 µM; in the assay with M14 melanoma, 2 µM; in the assay on TK-10 renal it was 3.73 µM. In addition, the GI50 in the assay with NCI-H460 lung is 2.09 µM; in the assay on ACHN renal, 2.11 µM; in the assay on KM12 colon, 1.96 µM; in the assay on MCF7 breast, 1.67 µM. For the same molecule, the TGI in the assay on COLO 205 colon worked out at 3.73 µM; in the assay on HL-60(TB) leukemia it was 4.57 µM; in the assay on RXF 393 renal it was 3.73 µM; with HOP-92 NSCLC, 11 µM; in the assay with M14 melanoma, 3.97 µM; in the assay on TK-10 renal, 14.3 µM. For the same molecule, the TGI turned out to be 4.4 µM in the assay with NCI-H460 lung, 4.44 µM with ACHN renal, 4.04 µM in the assay with KM12 colon and 3.37 µM in the assay on MCF7 breast.

Consider `COC(=O)[C@]12CC[C@@H](C)[C@H](C)[C@@H]1C1=CC[C@@H]3[C@@]4(C)C/C(=N\O)[C@H](O)[C@@]5(C)COC(=C45)C[C@@]3(C)[C@]1(C)CC2`, for which the GI50 in the assay with COLO 205 colon was 7.75 µM; with HL-60(TB) leukemia, 3.64 µM; in the assay on RXF 393 renal it was 2.41 µM; in the assay on HOP-92 NSCLC it was 2.98 µM; in the assay with M14 melanoma, 14.2 µM; in the assay with TK-10 renal, 18.3 µM. The GI50 in the assay on NCI-H460 lung was 3.29 µM; with ACHN renal, 2.58 µM; in the assay on KM12 colon, 5.77 µM; in the assay with MCF7 breast, 3.5 µM. For the same molecule, the TGI is 21.8 µM in the assay with COLO 205 colon; 13.2 µM in the assay on HL-60(TB) leukemia; 7.36 µM in the assay with RXF 393 renal; 10.3 µM in the assay with HOP-92 NSCLC; 27.7 µM in the assay with M14 melanoma; 33.9 µM with TK-10 renal. The TGI in the assay on NCI-H460 lung is 10.7 µM; with ACHN renal, 7.41 µM; in the assay on KM12 colon it was 20.2 µM; in the assay on MCF7 breast, 15.3 µM.

In the case of `CC[CH2][Sn]([CH2]CC)([O]C(=O)c1cccnc1SC)[O][Sn]([CH2]CC)([CH2]CC)[O]C(=O)c1cccnc1SC`, the GI50 was 0.396 µM in the assay with COLO 205 colon; 0.26 µM with HL-60(TB) leukemia; 0.0992 µM with RXF 393 renal; 0.342 µM with HOP-92 NSCLC; 0.513 µM with M14 melanoma; 0.409 µM with TK-10 renal. In addition, the GI50 with NCI-H460 lung was 1.99 µM; in the assay on ACHN renal, 0.427 µM; with KM12 colon, 1.5 µM; in the assay on MCF7 breast, 0.495 µM. The TGI amounted to 1.08 µM in the assay with COLO 205 colon; 4.24 µM with HL-60(TB) leukemia; 0.342 µM in the assay with RXF 393 renal; 0.829 µM with HOP-92 NSCLC; 1.38 µM in the assay on M14 melanoma; 1.09 µM with TK-10 renal. The TGI amounted to 4.94 µM in the assay on NCI-H460 lung, 0.97 µM with ACHN renal, 4.43 µM in the assay on KM12 colon and 1.72 µM with MCF7 breast.
